Measurements: US20190269596A1, “COSMETIC USE AND METHOD FOR IMPROVING PHYSIOLOGICAL FUNCTIONS OF THE SKIN BY INCREASING THE EXPRESSION OF UBIAD1” (ISP Investments LLC, priority 2016, published 2019)
Where no end group is shown, it is not given here.

What was measured:
Assay type in all cases: cell-based, human
[1] = system: keratinocytes; test: Transmission electron microscopy of peptide-treated keratinocytes; details: cultured keratinocytes, peptide 1 tLM, 48 hours
Description: (§1) Normal human epithelial keratinocytes were isolated from skin obtained from plastic surgery of healthy females who had given written informed consent. Keratinocytes were cultured in keratinocyte serum free medium, with provided human recombinant epidermal growth factor and bovine pituitary extract (Gibco, Auckland, NZ), and 0.1 mg/ml Primocin™ (Invivogen, San Diego, Calif., USA).
Cultured keratinocytes, treated with the peptide at 1 tLM concentration for 48 hours were fixed in Karnovsky's solution (Emsdiasum, Hatfield, Pa., USA) for 1 h at room temperature, and left for 12 h at 4° C. Cells were then carefully scrapped off the petridish, pelleted with a brief centrifugation, and washed with 0.1 M sodium cacodylate buffer. Pellets were routinely osmicated, dehydrated in a graded series of ethanol, and infiltrated with; and embedded in, a low viscocity epon-epoxy resin. Ultrathin sections of silver-gray interference color were cut and double-stained with uranyl acetate and lead citrate and then examined in a Zeiss 10 transmission electron microscope. Microphotographs were taken with a Gatan digital camera (Gatan, Pleasanton, Calif., USA).

[2] = system: Ubiad1; test: qPCR of Ubiad1 mRNA expression in keratinocytes; details: skin keratinocytes, 1 μM (1%) Ubiad1 inducer peptide
Description: as §1
Total RNA was extracted using mirVana miRNA isolation kit according to the manufacturer's instructions (Ambion, Austin, Tex., USA). Total RNA was reverse transcribed with the high capacity cDNA reverse transcription kit (Applied Biosystems, Branchburg, N.J., USA). Real-time polymerase chain reaction was performed according to the Taqman method, using the TaqMan Universal PCR Master Mix (Applied Biosystems) with the StepOnePlus Real-time PCR System (Applied Biosystems). Relative expression levels of each target gene were calculated according to the delta-delta-CT method.

[3] = system: keratinocytes; test: Cellular ROS measurement with CellROX green in keratinocytes exposed to cumene hydroperoxide; details: keratinocytes exposed 1 hour to 200 μM cumene hydroperoxide, peptide-treated
Description: (A) Cellular ROS measurement in keratinocyte exposed 1 hour to 200 μM cumene hydroperoxide using the CellIROX green assay (×20 objective lens, scale bar=31 μm).
(§2) (B) CellROX quantification graph with One-Way Analysis of Variance, displaying confidence interval means diamonds (green). The line across each diamond represents the group mean. The vertical span of each diamond represents the 95% confidence interval for each group. Grand sample mean is represented by a horizontal black line.
(§3) Primary antibodies used were anti-Ubiad1 (sc-377013, Santa Cruz Biotechnology, Heidelberg, Gennany), anti-Giantin (ab24586, Abcamn, Cambridge, UK), anti-3-Nitrotyrosine (ab61392, Abcam). Alexa Fluor® coupled secondary antibodies were used (Molecular Probes, Eugene, Oreg., USA). Alexa Fluor® 594 Phalloidin probe were used for F-actin detection (A12381, molecular Probes). CellROX Green probe was used for monitoring intracellular ROS (C10444, molecular Probes). C11-BODIPY (581/591) was used for monitoring lipid peroxidation (C10445, Molecular Probes). […]
(§4) All experiments have been repeated, the quantification of the fluorescence was performed by measuring the fluorescent intensity of the staining, which was normalized by cell area. Lipid peroxidation in cells was quantified according to manufacturer guideline with the ratios of the signal from the 590 to 510 channels. […]

[4] = system: Ubiad1; test: Immunoblotting of Ubiad1 in keratinocytes; details: skin keratinocytes, 1 μM (1%) Ubiad1 inducer peptide
Description: as §1
Keratinocytes were lysed in RIPA buffer (Thermo Scientific, Rockford, Ill., USA), containing protease inhibitor cocktail and EDTA (Thermo Scientific). The protein concentration was determined using the BCA Protein Assay Kit (Thermo Scientific) and equal amounts of total protein were loaded on a 4 to 12% NuPAGE Bis-Tris Gel (Invitrogen) and transferred onto a nitrocellulose membranes using the iBlot dry blotting system (Invitrogen). Non specific binding sites were blocked, and membranes were then labeled with appropriate antibodies and developed using the SuperSignal West Femto Maximum Sensitivity Substrate kit (Thermo Scientific).

[5] = system: keratinocytes; test: Lipid peroxidation (C11-BODIPY) in keratinocytes exposed to cumene hydroperoxide; details: keratinocytes exposed 1 hour to 200 μM cumene hydroperoxide, peptide-treated
Description: (C) Lipid peroxidation in keratinocyte exposed 1 hour to 200 μM cumene hydroperoxide (reduced BODIPY in red; oxidized BODIPY in green) (×20 objective lens, scale bar=31 μm).
as §2, with “(D) Lipid peroxidation” for “(B) CellROX”
as §3, §4

Substance: Ala-Val-Leu-Ala-Gly-NH2 (AVLAG-NH2) [Ubiad1 inducer peptide, artificially synthesized Ubiad1 inducer peptide]
- cell morphology: mitochondrial and Golgi content of the cells [1]: large scale increase in the mitochondrial and Golgi content of the cells
- increase of expression of Ubiad1 measured by qPCR [2]: +102%
- resistance to ROS accumulation [3]: more resistant to ROS accumulation
- increase of expression of Ubiad1 measured by immunoblotting [4]: +53%
- resistance to lipid peroxidation [5]: more resistant
